Data on eight compounds can be found in PubChem BioAssay AID1259407 (Chemical Carcinogenesis Research Information System (CCRIS), 2018).

Activity calls are given as the source filed them. How the calls were made is not given here.

The test system of the data set is CCRIS mutagenicity, Ames/micronucleus/aberration tests. The data set is described as follows: CCRIS mutagenicity studies.
The mark [1] stands for this setting: Test System: AMES SALMONELLA TYPHIMURIUM, Strain/Indicator: TA98, Metabolic Activation: HAMSTER, LIVER, S-9, AROCLOR 1254, Method: STANDARD PLATE.
Where [2] appears, read: Test System: AMES SALMONELLA TYPHIMURIUM, Strain/Indicator: TA98, Metabolic Activation: NONE, Method: STANDARD PLATE.
The mark [3] stands for this setting: Test System: AMES SALMONELLA TYPHIMURIUM, Strain/Indicator: TA98, Metabolic Activation: RAT, LIVER, S-9, AROCLOR 1254, Method: STANDARD PLATE.
[4] abbreviates: Test System: AMES SALMONELLA TYPHIMURIUM, Strain/Indicator: TA100, Metabolic Activation: HAMSTER, LIVER, S-9, AROCLOR 1254, Method: STANDARD PLATE.
Where [5] appears, read: Test System: AMES SALMONELLA TYPHIMURIUM, Strain/Indicator: TA100, Metabolic Activation: NONE, Method: STANDARD PLATE.
The mark [6] stands for this setting: Test System: AMES SALMONELLA TYPHIMURIUM, Strain/Indicator: TA100, Metabolic Activation: RAT, LIVER, S-9, AROCLOR 1254, Method: STANDARD PLATE.
Where [7] appears, read: Test System: AMES SALMONELLA TYPHIMURIUM, Strain/Indicator: TA1535, Metabolic Activation: HAMSTER, LIVER, S-9, AROCLOR 1254, Method: STANDARD PLATE.
Setting [8] is: Test System: AMES SALMONELLA TYPHIMURIUM, Strain/Indicator: TA1535, Metabolic Activation: NONE, Method: STANDARD PLATE.
The mark [9] stands for this setting: Test System: AMES SALMONELLA TYPHIMURIUM, Strain/Indicator: TA1535, Metabolic Activation: RAT, LIVER, S-9, AROCLOR 1254, Method: STANDARD PLATE.
Setting [10] is: Test System: AMES SALMONELLA TYPHIMURIUM, Strain/Indicator: TA1537, Metabolic Activation: HAMSTER, LIVER, S-9, AROCLOR 1254, Method: STANDARD PLATE.
Where [11] appears, read: Test System: AMES SALMONELLA TYPHIMURIUM, Strain/Indicator: TA1537, Metabolic Activation: NONE, Method: STANDARD PLATE.
The mark [12] stands for this setting: Test System: AMES SALMONELLA TYPHIMURIUM, Strain/Indicator: TA1537, Metabolic Activation: RAT, LIVER, S-9, AROCLOR 1254, Method: STANDARD PLATE.

On to `CC(=O)O[C@@H]1[C@@H](O)[C@H](O[C@H]2[C@H](OC(=O)[C@H]3CC[C@@H]4[C@H](C3)O[C@@]3(C[C@H](OC(=O)/C=C/c5ccccc5)[C@H](C)CO3)[C@]43CO3)O[C@H](C)[C@@H](O)[C@@H]2OC(C)=O)O[C@H](C)[C@H]1O`, for which the mutagenic call is “inactive; negative” under setting [1]; “inactive; negative” under setting [2]; “inactive; negative” under setting [3]; “inactive; negative” under setting [4]; “inactive; negative” under setting [5]; “inactive; negative” under setting [6]. Also, the mutagenic call was “inactive; negative” under setting [7]; “inactive; negative” under setting [8]; “inactive; negative” under setting [9]; “inactive; negative” under setting [10]; “inactive; negative” under setting [11]; “inactive; negative” under setting [12].
On to `CC(=O)Nc1ccc(N/N=C2/C(=O)c3ccc(NC(=O)Nc4ccc5c(c4)C=C(S(=O)(=O)O)/C(=N/Nc4ccccc4)C5=O)cc3C=C2S(=O)(=O)O)cc1`, for which the mutagenic call (Test System: Ames Salmonella typhimurium, Strain/Indicator: TA98, Metabolic Activation: None, Method: Preincubation) was “active; positive”.
In the case of `[Cl][Mn][Cl]`, the mutagenic call was “inactive; negative” (Test System: AMES SALMONELLA TYPHIMURIUM, Strain/Indicator: TA98, Metabolic Activation: NONE, Method: PREINCUBATION); “inactive; negative” (Test System: AMES SALMONELLA TYPHIMURIUM, Strain/Indicator: TA98, Metabolic Activation: RAT LIVER S-9, PHENOBARBITAL AND BETA-NAPHTHOFLAVONE, Method: PREINCUBATION); “inactive; negative” (Test System: AMES SALMONELLA TYPHIMURIUM, Strain/Indicator: TA100, Metabolic Activation: NONE, Method: PREINCUBATION); “inactive; negative” (Test System: AMES SALMONELLA TYPHIMURIUM, Strain/Indicator: TA100, Metabolic Activation: RAT LIVER S-9, PHENOBARBITAL AND BETA-NAPHTHOFLAVONE, Method: PREINCUBATION); “active; positive” (Test System: AMES SALMONELLA TYPHIMURIUM, Strain/Indicator: TA102, Metabolic Activation: NONE, Method: STANDARD PLATE); “inactive; negative” (Test System: AMES SALMONELLA TYPHIMURIUM, Strain/Indicator: TA1535, Metabolic Activation: NONE, Method: PREINCUBATION). For the same compound, the mutagenic call was “inactive; negative” (Test System: AMES SALMONELLA TYPHIMURIUM, Strain/Indicator: TA1535, Metabolic Activation: RAT LIVER S-9, PHENOBARBITAL AND BETA-NAPHTHOFLAVONE, Method: PREINCUBATION); “inactive; negative” (Test System: AMES SALMONELLA TYPHIMURIUM, Strain/Indicator: TA1537, Metabolic Activation: NONE, Method: PREINCUBATION); “inactive; negative” (Test System: AMES SALMONELLA TYPHIMURIUM, Strain/Indicator: TA1537, Metabolic Activation: RAT LIVER S-9, PHENOBARBITAL AND BETA-NAPHTHOFLAVONE, Method: PREINCUBATION); “inactive; negative” (Test System: AMES SALMONELLA TYPHIMURIUM, Strain/Indicator: TA1538, Metabolic Activation: NONE, Method: PREINCUBATION); “inactive; negative” (Test System: AMES SALMONELLA TYPHIMURIUM, Strain/Indicator: TA1538, Metabolic Activation: RAT LIVER S-9, PHENOBARBITAL AND BETA-NAPHTHOFLAVONE, Method: PREINCUBATION); “inactive; negative” (Test System: E. COLI, Strain/Indicator: WP2 UVRA, Metabolic Activation: NONE, Method: SPOT TEST). The mutagenic call reads like this: (Test System: E.COLI, Strain/Indicator: WP2UVRA, Metabolic Activation: NONE, Method: PREINCUBATION) “inactive; negative”; (Test System: E.COLI, Strain/Indicator: WP2UVRA, Metabolic Activation: RAT LIVER S-9, PHENOBARBITAL AND BETA-NAPHTHOFLAVONE, Method: PREINCUBATION) “inactive; negative”.
On to `COc1cc(-c2cc(=O)c3c(O)cc(O)cc3o2)ccc1O`, for which the mutagenic call is, setting by setting: (Test System: Ames Salmonella typhimurium, Strain/Indicator: TA98, Metabolic Activation: None, Method: Standard plate) “inactive; negative”; (Test System: Ames Salmonella typhimurium, Strain/Indicator: TA98, Metabolic Activation: Rat, Liver, S-9, Aroclor 1254, Method: Standard plate) “inactive; negative”.
In the case of `O=[N+]([O-])c1ccc(-c2csc(Nc3ccccc3)n2)o1`, the mutagenic call (Test System: E. COLI WP2, Strain/Indicator: WP2, Metabolic Activation: NONE, Method: SPOT) was “active; positive”.
On to `CCC1=C(C(=O)OC)C(=O)OC1C` (configuration not stated), for which the mutagenic call is, setting by setting: (Test System: AMES SALMONELLA TYPHIMURIUM, Strain/Indicator: TA98, Metabolic Activation: NONE, Method: DISK ASSAY) “inactive; negative”; under setting [2], “active; positive”; (Test System: AMES SALMONELLA TYPHIMURIUM, Strain/Indicator: TA98, Metabolic Activation: RAT, LIVER, S-9, AROCLOR 1254, Method: DISK ASSAY) “inactive; negative”; under setting [3], “active; positive”.
For the compound `O=c1c(O)c(O)c1=O`, the mutagenic call under setting [1] is “inactive; negative”; the mutagenic call under setting [2] was “inactive; negative”; the mutagenic call under setting [3] is “inactive; negative”; the mutagenic call under setting [4] is “inactive; negative”; the mutagenic call under setting [5] was “inactive; negative”; the mutagenic call under setting [6] was “inactive; negative”. Further, the mutagenic call reads like this: under setting [7], “inactive; negative”; under setting [8], “inactive; negative”; under setting [9], “inactive; negative”; under setting [10], “inactive; negative”; under setting [11], “inactive; negative”; under setting [12], “inactive; negative”. The mutagenic call runs as follows: (Test System: AMES SALMONELLA TYPHIMURIUM, Strain/Indicator: TA1538, Metabolic Activation: HAMSTER, LIVER, S-9, AROCLOR 1254, Method: STANDARD PLATE) “inactive; negative”; (Test System: AMES SALMONELLA TYPHIMURIUM, Strain/Indicator: TA1538, Metabolic Activation: NONE, Method: STANDARD PLATE) “inactive; negative”; (Test System: AMES SALMONELLA TYPHIMURIUM, Strain/Indicator: TA1538, Metabolic Activation: RAT, LIVER, S-9, AROCLOR 1254, Method: STANDARD PLATE) “inactive; negative”; (Test System: MOUSE LYMPHOMA, Strain/Indicator: L5178Y (TK+/TK-), Metabolic Activation: NONE, Method: SUSPENSION/PLATE) “inactive; negative. reevaluation of results: negative”; (Test System: MOUSE LYMPHOMA, Strain/Indicator: L5178Y (TK+/TK-), Metabolic Activation: RAT, LIVER, S-9, AROCLOR 1254, Method: SUSPENSION/PLATE) “inactive; negative. reevaluation of results: negative”.
`Cc1cccc(C2CO2)c1` (configuration not stated): where the note is “Test System: E. COLI, Strain/Indicator: WP2 UVRA, Metabolic Activation: NONE, Method: STANDARD PLATE”, the mutagenic call was “active; positive”.
